Data reported in patent US6566047B1, “Method for identifying neurite-growth promoting agents” (The Regents of the University of Colorado, priority 1998, dated 2003).
“Also recorded” adds a separate entry of the source.

How the values were obtained:
MAT-Lu cells = assay: Pseudopod morphometry (pseudopod length assay), MAT-Lu cells; type: cell-based, rat; details: for effect of inhibitor pretreatment on AA-induced pseudopod shortening: 15 min pretreatment, indomethacin 10 ηm, NDGA 25 μM, CDC 63 and 126 nM; for effect of agent alone on pseudopod length: typically 15 min exposure
Description: Pseudopod Morphometry. To study the effects of various agents on pseudopods on a short-term basis, we measured pseudopod lengths. Cells plated in 35-mm diameter dishes at low density (1×10^4 per dish) were incubated overnight, tie medium was changed, and the experiments were run four hours later. First, cultures were shifted to serum-free medium, which was replaced one hour later by serum-free medium with or without the various agents (thrombin, AA or HETEs). Care was taken to avoid heat and light inactivation of the eicosanoids. Culture dishes were placed on a Zeiss inverted microscope equipped with a heated stage and viewed with a 16×phase contrast objective lens. Randomly selected fields of the cultures, containing generally about 20 cells each, were recorded, digitized and stored in the computer at the onset of the experiment and at different times thereafter.
In some cases, individual cells were monitored over different periods of time immediately after introduction of the reagent, either by mixing it into the medium or by applying it locally to one end of the cell. Local application was done with a “puffer” system that expels microliter amounts of the desired solution from a micromanipulator-controlled micropipette tip. Cell morphology was recorded, and the captured images were analyzed with a Power Macintosh computer using NIH Image. Cell process length was measured from the center of the nucleus to the end of the process. Characterization of the frequencies of pseudopod lengths, at a fixed time for each of a sequence of concentrations of reagent, utilized a gamma regression model with an inverse quadratic linear predictor (McCullagh and Nelder, Generalized Linear Models 2d ed., pp. 291-292 (Chapman & Hall, 1989), separately fit to each concentration data set. Although no formal goodness-of-fit tests were carried out, in virtually every case there was good visual representation of the pattern of response (see FIG. 14). Most data, however, are shown as whisker-box plots, where the center point represents the 50%, the ends of the box the […] and 75%, and the “whiskers” the 5% and 95% quantiles (e.g., FIG. 11). Statistical comparisons of pseudopod lengths for different treatments were done by standard non-parametric techniques (Wilcoxon Rank Sum or Kruskal-Wallis Tests), as judged appropriate. Polynomial curve fittings were done by standard least-squares techniques. Statistical analyses and graphing were done with the use of SAS procedures: Reg, Phreg, Nparlway and Plot (SAS institute Inc., Cary, N.C.).

[1] = test system: growth cones in cultures of rat cerebral cortex; assay: Growth cone collapse assay in cortical neuron culture; type: cell-based; details: for effect of inhibitor pretreatment on thrombin- or TRAP-induced growth cone collapse: CDC 10 μM, indomethacin 25 μM, pretreatment 30-45 min
Description: Neuron Culture. Cerebral cortices were dissected from embryonic day 18 Sprague-Dawley rats, cut into explants of less than 1 mm^3 and cultured on either poly-D-lysine-coated coverglass (Assistent) or poly-D-lvsine-coated tissue culture plastic. After 24 hours in B27 neurobasal medium (NB) supplemented with 10% fetal bovine serum, cultures were switched to serum-free B27/NB. The cultures were incubated at 37° C. in 5% CO2 in air. Sprouting neurons were observed readily on day 1. On day 2 or 3, long neurites were present, and the cultures were used for collapse experiments.
Actin Staining. After experimentation, cultures were fixed by slow infusion of fixative (4% paraformaldehyde in 0.1 M phosphate buffer, pH 7.4) into the culture dishes over 10 min (Pfenninger and Maylié-Pfenninger, J. Cell Biol. 89:53-546 (1981)). Thereafter, the fixative was removed by rinsing three times with phosphate-buffered saline (PBS) containing 1 mM glycine. Cultures were then blocked with PBS/1% bovine serum albumin (BSA) and permeabilized by incubation in 0.02% Triton X-100 for 5 min. After three washes in PBS/BSA, cultures were incubated with Texas-Red-conjugated phalloidin for 30 min. Unbound phalloidin was washed away by two PBS rinses, after which the coverglasses were mounted in Slow-Fade Light on microscope slides. Images were recorded on 35 mm film using a Zeiss Axiophot fluorescence microscope equipped with epiillumination.
Growth Cone Collapse Assay. Prior to repellent factor treatment, some of the day 2-3 explant cultures were pre-incubated (at 37° C.) with inhibitor or vehicle control (dimethylsulfoxide or ethanol) for 30-60 min. Cultures were then challenged with a repellent factor or vehicle control for 1-30 min. In some experiments, live cultures were photographed with a Zeiss IM 35 inverted photo microscope equipped with a stage heater, while in others cultures were fixed (as above) after 7 minutes of repellent factor treatment. Growth cone collapse was assessed quantitatively in aldehyde-fixed cultures by grading the degree of collapse in a large number of randomly selected growth cones.

12-Lox = assay: Eicosanoid (HETE) generation in GCPs; type: biochemical, rat
Description: Eicosanoid Assays. Eicosanoid production in GCPs was measured by metabolic labelling from ^14C-AA or ^14C-AA-PC or by mass spectrometric detection. […] To measure Lox activity directly, without PLA2 involvement, ^3H-AA was the substrate of choice. Reactions were stopped by the addition of chloroform/methanol as for the phospholipase assays. Reaction products were extracted as described by Birkle et al., Neuromethods, vol. 7, pp.227-244 (Humana Press, N.J. 1988), spotted on pre-activated si gel 60 TLC plates, and the plates developed in the upper phase of ethyl acetate/isooctane/acetic acid/water (100:60:20:100). AA and HETEs were identified by co-migration with standards. Appropriate bands were counted by liquid scintillation spectrometry.
For mass-spectrometric (MS) identification of HETEs, two different strategies were pursued:
(1) the appropriate bands from non-labelled samples (PC substrate) were scraped from the TLC plate into ether/methanol (9:1) and stored under N2 at −20° C. Authentic 12(S)-HETE, run alongside in the same manner, was used as a standard. Just prior to analysis, samples were passed over an SPE filter to eliminate silica particles, dried under argon, resuspended in 500 μl ethanol, and injected (at 3 μl/min) into a Finnigan LCQ quadrupole ion trap mass spectrometer (Finnigan MAT, San Jose, Calif.) equipped with an electrospray ionization source. All spectra were acquired at a capillary temperature of 80° C., and ion guide voltages were tuned to maximize the abundance of the deprotonated ion species [M-H]^− in negative mode. In order to generate a spectrum, typically 100 single scans were averaged.
(2) For the other strategy (liquid chromatography/tandem MS, LC/MS^2), the reaction substrate consisted of 3.5 μM AA, with the addition of 3.5 μM deuterated AA (AA-D8) plus 1 μCi ^3H-AA to track reaction products by mass and radioactivity, respectively. Reactions were stopped with ice-cold ethanol, the mixtures kept overnight at −20° C. under N2, and the proteins spun out The supernatants were diluted with H2O and loaded onto 1-ml C18 Sep-Pak columns (Varian). After washing with H2O, eicosanoid was eluted with 2 ml methanol. These samples were resolved by reverse-phase HPLC, and the eluted fractions analyzed by tandem MS on-line (MacMillan and Murphy, 1995). Collision-induced decomposition of HETE isomers produced characteristic fragments that were identified at the second MS stage.

GCPs plated on laminin = assay: GCP release (detachment) assay on laminin; parameters: species or system rat; details: 20 min at 37° C., cytochalasin D 1 μM
Description: GCP Release Assay. Petri dishes (35 mm diameter) were coated with 10 μg mouse laminin in PBS by incubation at room temperature for 60 min with shaking. Dishes were subsequently rinsed three times with PBS to remove unbound laminin and then blocked with 5% non-fat dry milk (Carnation) in PBS for 30 min. After three PBS rinses to remove blocking agent, the dishes were ready for the addition of GCPs. […] After incubation for five min at 37° C. this buffered GCP preparation was added to the laminincoated petri dishes. Contact with the substratum was facilitated by centrifuging the dishes for 15 min at 5000 g (Beckman JS5.2 rotor) at room temperature, followed by incubation at 37° C. to allow adhesion site formation. After 10 min, unattached GCPs were removed by rinsing the dishes twice with 1× modified Krebs buffer. Plated GCPs were then challenged with repellent factor (TRAP or thrombin) for 20 min at 37° C. The supernatant containing released GCPs was collected and centrifuged for protein determination of the pellet. GCPs that remained attached after repellent treatment were removed with 5% sodium dodecyl sulfate (SDS) for protein assay. Protein was measured according to Lowry et al. (1951) as modified by Peterson (1983). Results of these experiments were expressed as the percentage of released versus total GCP protein in the assay.

growth cone PLA2 = assay: PLA2 assay in growth cone particles (GCPs); type: biochemical, rat; details: GCPs
Description: Growth Cone Particle (GCP) Isolation. GCPs were prepared as described by Pfenninger et al. (1983) and modified by Lohse et al., Dev. Brain Res., 96:38-96 (1996). Briefly, 18-day fetal brains were homogenized in approximately 8 volumes of 0.32 M sucrose containing 1 mM MgCl2, 2 mM TES buffer, pH 7.3, and 3 μM aprotinin. A low-speed supernatant (1,660 g×15 min) was loaded onto a discontinuous sucrose density gradient With steps of 0.83 M and 2.66 M sucrose containing MgCl2 and TES. The gradients were spun to equilibrium at 242,000 g for 40 min in a vertical rotor (Vti50, Beckman). The GCP fraction at the 0.32/0.83 M sucrose interface was collected and used for the experiments described below.
All assays were run in triplicate.

protein kinase C (PKC) = assay: MARCKS phosphorylation by PKC in isolated GCPs; type: biochemical, rat; details: isolated growth cones
Description: FIG. 7A. Thrombin stimulates MARCKS phosphorylation in a 12-LOX-dependent manner. FIG. 7B. 12(S)-HETE stimulates MARCKS phosphorylation by PKC in isolated GCPs. […] Polypeptides were resolved by SDS-PAGE. MARCKS phosphorylation was quantified by phosphorimaging.

In the case of `COc1ccc2c(c1)c(CC(=O)O)c(C)n2C(=O)c1ccc(Cl)cc1` [indomethacin], the “effect of inhibitor pretreatment on AA-induced pseudopod shortening” value (MAT-Lu cells) is reported as “did not influence the AA effect; also recorded: had no effect at all”, the “effect of inhibitor pretreatment on thrombin- or TRAP-induced growth cone collapse” value [1] is reported as “has no effect on control or thrombin treatment of growth cones” and the “effect of inhibitor on thrombin-stimulated HETE production from AA” value (12-Lox; 3H-AA substrate) is reported as “not”.
SFLLRN [TRAP] was tested, and the “growth cone collapse, agent alone” value ([1]; thrombin 100 nM, TRAP (100 mM), 12(S)-HETE 10^−7 M) was “qualitatively the same effect as thrombin, but the change is not as pronounced”, the “effect on GCP detachment from laminin” value (GCPs plated on laminin) was “mimics the effect” and the “effect on GCP detachment from laminin” value (GCPs plated on laminin; listed as TRAPs) was “much less effectively”. The “activation of growth cone cPLA2/PLA2” value (growth cone PLA2) was “clearly stimulated PLA2, but to a considerably lesser degree” and the “activation of growth cone cPLA2/PLA2” value (growth cone PLA2; listed as TRAPs) was “much less effectively”.
“NGF: growth factor whose receptors are present on GCPs” was tested, and the “activation of growth cone cPLA2/PLA2” value (growth cone PLA2) was “only weakly or not at all”.
“insulin: insulin from Collaborative Biomedical Products” was tested, and the “activation of growth cone cPLA2/PLA2” value (growth cone PLA2) was “failed to stimulate PLA2 significantly” and the “net activity (pmol/min/mg protein)” value (growth cone PLA2; Table 3c, substrate PI, BDNF 100, IGF-1 0.75, insulin 1, thrombin 200 nM, control 159 ± 6.2) was 158 ± 8.4 pmol/min/mg protein.
In the case of `C=C1[C@@H](C)[C@H]2[C@H](Cc3ccccc3)NC(=O)[C@]23[C@H](OC(C)=O)/C=C/[C@@](C)(O)C(=O)[C@@H](C)C/C=C/[C@H]3[C@@H]1O` [cytochalasin D], the “effect on GCP detachment from laminin” value (GCPs plated on laminin) is reported as “caused considerable release of GCPs by themselves”.
`CC(=O)C(C)=NO` [BDM, 2,3-butanedione monoxime] was tested, and the “effect on GCP detachment from laminin” value (GCPs plated on laminin) was “caused considerable release of GCPs by themselves”.
For `CCCCC/C=C\C/C=C\C/C=C\C=C\[C@@H](O)CCCC(=O)O` [5(S)-HETE], the “effect of agent alone on pseudopod length” value (“effect of agent alone” below) (MAT-Lu cells) was “essentially inactive; also recorded: had no effect on pseudopod length”.
With `CCCCC/C=C\C[C@@H](O)/C=C/C=C\C/C=C\CCCC(=O)O` [12(R)-HETE] the “stimulation of MARCKS and GAP43 phosphorylation” value (protein kinase C (PKC)) was “not” and the “effect of agent alone” value (MAT-Lu cells) was “essentially inactive; also recorded: small reduction in pseudopod length”.
With `CC(Cc1ccc(O)c(O)c1)C(C)Cc1ccc(O)c(O)c1` (stereo not drawn) [NDGA, nordihydroguaiaretic acid] the “effect of inhibitor pretreatment on AA-induced pseudopod shortening” value (MAT-Lu cells) was “blocked the AA effect completely; also recorded: inhibited the pseudopod shortening”, the “effect of agent alone” value (MAT-Lu cells) was “had no effect on pseudopod lengths” and the “effect of inhibitor pretreatment on thrombin- or TRAP-induced growth cone collapse” value [1] was “protects growth cones from thrombin- or TRAP-induced collapse”. For the same compound, the “effect on conversion of 14C-AA into 12(S)-HETE” value (12-Lox; 60 min, 37° C.) was “blocked”.
For `CCCCC[C@H](O)/C=C/C=C\C/C=C\C/C=C\CCCC(=O)O` [15(S)-HETE, 15(S)-hydroxyeicosatetraenoic acid], the “effect of agent alone” value (MAT-Lu cells) was “about as active as 12(S)-HETE; also recorded: reduced pseudopod lengths of MAT-Lu cells in a biphasic manner”.
